Usually melting point stands for the temperature of the solid-liquid transition.

Structures can show the parent of a compound that is named as a salt. Some results are limits rather than exact numbers.

For one series, the target named is T1, hPPARδ (Homo sapiens, UniProt Q03181).
T1 construct: polyHis; made in house; host or cells: E. coli
T1 sequence (Q03181 211-439 limits assumed): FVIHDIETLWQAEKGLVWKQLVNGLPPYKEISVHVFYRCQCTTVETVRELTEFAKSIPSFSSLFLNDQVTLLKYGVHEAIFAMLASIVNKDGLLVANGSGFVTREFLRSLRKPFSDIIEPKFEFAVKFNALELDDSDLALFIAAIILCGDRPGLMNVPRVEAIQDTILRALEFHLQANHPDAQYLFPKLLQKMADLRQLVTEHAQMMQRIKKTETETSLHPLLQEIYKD
Nature of the series: Scintillation Proximity Assay (SPA) binding to PPAR ligand binding domain. As to conditions: radioligand GW 2433 for PPARδ, receptor subtype not named in the result sentence, read-out: Apparent pKi (converted). The protocol:
Compounds were tested for their ability to bind to hPPARγ hPPARα, or PPARδ using a Scintillation Proximity Assay (SPA). The PPAR ligand binding domain (LBD) was expressed in E. coli as polyHis tagged fusion proteins and purified. The LBD was then labeled with biotin and immobilized on streptavidin-modified scintillation proximity beads. The beads were then incubated with a constant amount of the appropriate radio ligand (^3H-BRL 49653 for PPARγ, 2-(4-(2-(2,3-Ditritio-1-heptyl-3-(2,4-difluorophenyl)ureido)ethyl)phenoxy)-2-methylbutanoic acid (described in WO/008002) for hPPARα and GW 2433 (see Brown, P. J et al. Chem. Biol. 1997, 4, 909-918. For the structure and synthesis of this ligand) for PPARδ) and variable concentrations of test compound, and after equilibration the radioactivity bound to the beads was measured by a scintillation counter. The amount of nonspecific binding, as assessed by control wells containing 50 μM of the corresponding unlabelled ligand, was subtracted from each data point. For each compound tested, plots of ligand concentration vs. CPM of radio ligand bound were constructed and apparent Ki values were estimated from nonlinear least squares fit of the data assuming simple competitive binding. […]
Turning to `COC(=O)COc1ccc(SCc2sc(-c3ccc(C(F)(F)F)cc3)nc2C)cc1` [Example 61, Methyl 2-{4-[({4-Methyl-2-[4-(trifluoromethyl)phenyl]-1,3-thiazol-5-yl}methyl)sulfanyl]phenoxy}acetate], the Ki was over 316 nM.

System in the next series: not listed separately
The series can be described thus: Stability at ambient temperature (observation on isolated compound).
Conditions: not given
The format is physicochemical. As for the experimental part:
Example 37 was hydrolyzed as described in general procedure 3 to afford the title compound (45%) as a yellow solid: mp 124-126° C.; 1H-NMR (acetone-d6) δ 2.47 (s, 3H), 3.09 (s, 3H), 408(s, 2H), 5.25 (s, 2H), 6.70 (d, 2H), 6.91 (d, 2H), 7.83 (d, 2H), 8.16 (d, 2H); MS m/z 437(M+1)−.
As for `Cc1nc(-c2ccc(C(F)(F)F)cc2)sc1COc1ccc(N(C)CC(=O)O)cc1` [Example 38, N-Methyl-N-[4-(2-[4-Trifluromethylphenyl]-4-methyl-thiazole-5-ylmethoxy)phenyl]-acetic Acid], the “stability at ambient temperature” value is “unstable and gradually decomposed at ambient temperature”.

Another series has as its system obese rhesus monkeys. Nature of the series: 6-month dose escalation study in obese rhesus monkeys. As to conditions: 3 mg/kg dose bid, in each monkey. The format is in vivo, rhesus monkey. The protocol:
The compound of Example 66 was examined in a Rhesus model. […] HDLc increased by more than 40% in each monkey at the 3 mg/kg dose. […] Serum TG concentrations decreased by more than 30% in each monkey. Fasting insulin decreased by more than 20% in each monkey. Serum fibrinogen concentrations decreased by 10 20%, with peak activity observed at doses of 0.3 and 1 mg/kg.
With `Cc1cc(SCc2sc(-c3ccc(C(F)(F)F)cc3)nc2C)ccc1OCC(=O)O` [Example 66, 2-{2-Methyl-4-[({4-methyl-2-[4-(trifluoromethyl)phenyl]-1,3-thiazol-5-yl}methyl)sulfanyl]phenoxy}acetic Acid], the HDLc increase result is recorded as “more than 40%”.

Still in this series, the particulars now being: 0.1, 0.3, 1, and 3 mg/kg bid for 28 days each.
With `Cc1cc(SCc2sc(-c3ccc(C(F)(F)F)cc3)nc2C)ccc1OCC(=O)O` [Example 66, 2-{2-Methyl-4-[({4-methyl-2-[4-(trifluoromethyl)phenyl]-1,3-thiazol-5-yl}methyl)sulfanyl]phenoxy}acetic Acid], the “HDLc change with each dose” value is “raised HDLc with each dose”.

The series is the same for the next values; noted with them: dose escalation 0.1-3 mg/kg bid.
For the molecule `Cc1cc(SCc2sc(-c3ccc(C(F)(F)F)cc3)nc2C)ccc1OCC(=O)O` [Example 66, 2-{2-Methyl-4-[({4-methyl-2-[4-(trifluoromethyl)phenyl]-1,3-thiazol-5-yl}methyl)sulfanyl]phenoxy}acetic Acid], the “LDLc particle composition (NMR analysis of lipoprotein particles)” value is “shift in the LDLc composition to fewer and larger LDLc particles”.

The same series, now with this note: in each monkey.
For the molecule `Cc1cc(SCc2sc(-c3ccc(C(F)(F)F)cc3)nc2C)ccc1OCC(=O)O` [Example 66, 2-{2-Methyl-4-[({4-methyl-2-[4-(trifluoromethyl)phenyl]-1,3-thiazol-5-yl}methyl)sulfanyl]phenoxy}acetic Acid], the Fasting insulin decrease result is listed as “more than 20%” and the “Serum TG concentration decrease” value is listed as “more than 30%”.

System in a further series: not given
Test: not given
Conditions: not given
With `Cc1nc(-c2ccc(C(F)(F)F)cc2)sc1CCOc1ccc(CC(=O)O)cc1` [Example 32], the melting point was in the range of 128 to 130 °C.
The molecule `Cc1cc(OCc2sc(-c3ccc(C(F)(F)F)cc3)nc2C)ccc1OCC(=O)O` [Example 54, 2-[2-Methyl-4-({4-methyl-2-[4-(trifluoromethyl)phenyl]-1,3-thiazol-5-yl}methoxy)phenoxy]acetic Acid] came in with a melting point of 174 to 176 °C.
Still for that read-out and setting: to `Cc1nc(-c2ccc(C(F)(F)F)cc2)oc1COc1ccc(/C=C/C(=O)O)cc1` [Example 22, (E)-3-[4-({4-Methyl-2-[4-(trifluoromethyl)phenyl]-1,3-oxazol-5-yl}methoxy)phenyl]-2-propenoic Acid] belongs 193 °C.
For the molecule `Cc1nc(-c2ccc(C(F)(F)F)cc2)oc1COc1ccc(SCC(=O)O)cc1` [Example 44, 2-{[4-({4-Methyl-2-[4-(trifluoromethyl)phenyl]-1,3-oxazol-5-yl}methoxy)phenyl]sulfanyl}acetic Acid], the melting point was 138 to 140 °C.
`Cc1cc(SCc2sc(-c3ccc(F)c(F)c3)nc2C)ccc1OCC(=O)O` [Example 77, 2-{2-Methyl-4-[({4-methyl-2-[3,4-difluorophenyl]-1,3-thiazol-5-yl}methyl)sulfanyl]phenoxy}acetic Acid] yielded a melting point of 119 °C.
`Cc1nc(-c2ccc(C(F)(F)F)cc2)sc1CSc1ccc(CC(=O)O)cc1` (as salt: salt) [Example 48, 2-{4-[({4-Methyl-2-[4-(trifluoromethyl)phenyl]-1,3-thiazol-5-yl}methyl)sulfanyl]phenyl}acetic Acid] yielded a melting point of 202 to 203 °C.
Still for that read-out and setting: then `COc1cc(CC(=O)O)ccc1SCc1sc(-c2ccc(C(F)(F)F)cc2)nc1C` (as salt: salt) [Example 52, 2-{3-Methoxy-4-[({4-methyl-2-[4-(trifluoromethyl)phenyl]-1,3-thiazol-5-yl}methyl)sulfanyl]phenyl}acetic Acid], with 181 to 182 °C; and `Cc1cc(SCc2sc(-c3ccc(Br)cc3)nc2C)ccc1OCC(=O)O` [Example 69, 2-{2-Methyl-4-[({4-methyl-2-[4-bromophenyl]-1,3-thiazol-5-yl}methyl)sulfanyl]phenoxy}acetic Acid], with over 250 °C; and `Cc1nc(-c2cccc(C(F)(F)F)c2)oc1COc1ccc(CCC(=O)O)cc1` [Example 16, 3-[4-({4-Methyl-2-[3-(trifluoromethyl)phenyl]-1,3-oxazol-5-yl}methoxy)phenyl]propanoic Acid], with 134 to 135 °C.
Molecule `COc1cc(CCC(=O)O)ccc1OCc1sc(-c2ccc(C(F)(F)F)cc2)nc1C` [Example 6, 3-[3-Methoxy-4-({4-methyl-2-[4-(trifluoromethyl)phenyl]-1,3-thiazol-5-yl}methoxy)phenyl]propanoic Acid] yielded a melting point of 150 to 152 °C.
For `Cc1cc(SCc2sc(-c3cc(C(F)(F)F)cc(C(F)(F)F)c3)nc2C)ccc1OCC(=O)O` [Example 79, 2-{2-Methyl-4-[({4-methyl-2-[3,5-bis(trifluoromethyl)phenyl]-1,3-thiazol-5-yl}methyl)sulfanyl]phenoxy}acetic Acid], the melting point came to 178 °C.
Still for that read-out and setting: then `Cc1nc(-c2ccc(C(F)(F)F)cc2)sc1CSc1ccc(OCC(=O)O)cc1` [Example 62, 2-{4-[({4-Methyl-2-[4-(trifluoromethyl)phenyl]-1,3-thiazol-5-yl}methyl)sulfanyl]phenoxy}acetic Acid], with 190 °C; and `Cc1nc(-c2ccc(C(F)(F)F)cc2)sc1CCOc1ccc(CCC(=O)O)cc1` [Example 14], with 128 to 130 °C; and `Cc1cc(SCc2sc(-c3ccc(Cl)cc3)nc2C)ccc1OCC(=O)O` [Example 71, 2-{2-Methyl-4-[({4-methyl-2-[4chlorophenyl]-1,3-thiazol-5-yl}methyl)sulfanyl]phenoxy}acetic Acid], with 109 °C.
Still for that read-out and setting: then `COc1cc(CCC(=O)O)ccc1OCc1oc(-c2ccc(C(F)(F)F)cc2)nc1C` [Example 24], with 162 to 163 °C; and `Cc1nc(-c2ccc(C(F)(F)F)cc2)sc1COc1ccc(N(C)CC(=O)O)cc1` [Example 38, N-Methyl-N-[4-(2-[4-Trifluromethylphenyl]-4-methyl-thiazole-5-ylmethoxy)phenyl]-acetic Acid], with 124 to 126 °C.
For `Cc1nc(-c2ccc(C(F)(F)F)cc2)sc1COc1ccc(CC(=O)O)cc1Cl` [Example 36, 2-[3-Chloro-4-({4-methyl-2-[4-(trifluoromethyl)phenyl]-1,3-thiazol-5-yl}methoxy)phenyl]acetic Acid], the melting point fell in the range of 126 to 127 °C.
Same read-out and setting: to `Cc1cc(SCc2sc(-c3ccc(Cl)c(Cl)c3)nc2C)ccc1OCC(=O)O` [Example 75, 2-{2-Methyl-4-[({4-methyl-2-[3,4-dichlorophenyl]-1,3-thiazol-5-yl}methyl)sulfanyl]phenoxy}acetic Acid] belongs 143 °C; to `Cc1sc(-c2ccc(C(F)(F)F)cc2)nc1CCOc1ccc(CCC(=O)O)cc1` [Example 10, 3-[4-(2-{5-Methyl-2-[4-(trifluoromethyl)phenyl]-1,3-thiazol-4-yl}ethoxy)phenyl]propanoic Acid], 142 to 147 °C.
Molecule `Cc1nc(-c2ccc(C(F)(F)F)cc2)oc1COc1ccc(CC(=O)O)cc1Cl` (as salt: salt) [Example 50, 2-[3-Chloro-4-({4-methyl-2-[4-(trifluoromethyl)phenyl]-1,3-oxazol-5-yl}methoxy)phenyl]acetic Acid] gave a melting point of 189 to 191 °C.
Same read-out and setting: to `Cc1cc(SCc2sc(-c3ccc(F)cc3)nc2C)ccc1OCC(=O)O` [Example 73, 2-{2-Methyl-4-[({4-methyl-2-[4-fluorophenyl]-1,3-thiazol-5-yl}methyl)sulfanyl]phenoxy}acetic Acid] belongs 45 to 46 °C.

Source of the values: patent publication US6710063B1, “Activators of PPAR delta” (SmithKline Beecham Corporation, priority 1999, dated 2004).
